Each compound was assayed against T1, Human TREX1 enzyme (amino acids 1-242) (Homo sapiens, UniProt Q9NSU2) (assay: Human TREX1 enzymatic assay with dsDNA native oligonucleotide (Picogreen fluorescence)). Details: 2 mM dithiothreitol in assay buffer; 50 nM dsDNA oligonucleotide; 30 min preincubation at 25° C.; read-out: TREX1/Human + DTT IC50 AVG.
T1 construct: Human TREX1 enzyme (amino acids 1-242)
T1 sequence (Q9NSU2 1-242): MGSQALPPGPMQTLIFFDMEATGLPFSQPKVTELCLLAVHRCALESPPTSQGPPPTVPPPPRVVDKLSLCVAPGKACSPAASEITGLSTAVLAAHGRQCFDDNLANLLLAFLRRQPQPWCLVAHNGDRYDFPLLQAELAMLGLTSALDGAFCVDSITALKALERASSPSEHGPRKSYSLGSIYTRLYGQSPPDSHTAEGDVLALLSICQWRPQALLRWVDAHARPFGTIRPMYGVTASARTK
Type: biochemical
Procedure, shortened: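 TREX1 (0.8–0.16 nM final) preincubated with compound (300 μM–13 nM or 30 μM–1.5 nM, 2% DMSO) 30 min at 25 °C in Tris pH 7.7, 5 mM MgCl2, 2 mM DTT. Annealed dsDNA (50 nM) added for 5–15 min at 25 °C; EDTA quench with Picogreen fluorescence readout.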

| SMILES | IC50 [nM] |
| --- | --- |
| COc1cc(-c2nc3ccc(-n4cccn4)cc3n2C2(C)COC2)c(F)c(O)c1O [Example 184, 3-fluoro-6-methoxy-4-[1-(3-methyloxetan-3-yl)-6-(1H-pyrazol-1-yl)-1H-1,3-benzodiazol-2-yl]benzene-1,2-diol] | ≤ 100 |
| COc1cc(-c2nc3ccc(C(C)(C)O)cc3n2C2(C)COC2)c(F)c(O)c1O [Example 185, 3-fluoro-4-[6-(2-hydroxypropan-2-yl)-1-(3-methyloxetan-3-yl)-1H-1,3-benzodiazol-2-yl]-6-methoxybenzene-1,2-diol] | 1000 to 10000 |
| CNCc1ccc2nc(-c3cc(OC)c(O)c(O)c3F)n(C3(C)COC3)c2c1 [Example 186, 3-fluoro-6-methoxy-4-(6-((methylamino)methyl)-1-(3-methyloxetan-3-yl)-1H-benzo[d]imidazol-2-yl)benzene-1,2-diol] | 1000 to 10000 |
| COc1cc(-c2nc3cc(N4CCC4)ccc3n2C2COC2)c(C)c(O)c1O [Example 187, 4-(5-(azetidin-1-yl)-1-(oxetan-3-yl)-1H-benzo[d]imidazol-2-yl)-6-methoxy-3-methylbenzene-1,2-diol] | 1000 to 10000 |
| COc1cc(-c2nc3cc(N4CCC4)ccc3n2C2COC2)c(F)c(O)c1O [Example 188, 4-(5-(azetidin-1-yl)-1-(oxetan-3-yl)-1H-benzo[d]imidazol-2-yl)-3-fluoro-6-methoxybenzene-1,2-diol] | 1000 to 10000 |
| COc1cc(-c2nc3cc(N4CCC4)ccc3[nH]2)c(C)c(O)c1O [Example 189, 4-(5-(azetidin-1-yl)-1H-benzo[d]imidazol-2-yl)-6-methoxy-3-methylbenzene-1,2-diol] | 1000 to 10000 |
| COc1cc(-c2nc3cc(N4CCCC4=O)ccc3n2C2(C)COC2)c(F)c(O)c1O [Example 190, 1-[2-(2-fluoro-3,4-dihydroxy-5-methoxyphenyl)-1-(3-methyloxetan-3-yl)-1H-1,3-benzodiazol-5-yl]pyrrolidin-2-one] | 100 to 1000 |
| COc1cc(-c2nc3cc(N4CCCC4=O)ccc3n2C2COC2)c(F)c(O)c1O [Example 191, 1-(2-(2-fluoro-3,4-dihydroxy-5-methoxyphenyl)-1-(oxetan-3-yl)-1H-benzo[d]imidazol-5-yl)pyrrolidin-2-one] | 10000 to 100000 |
| COc1cc(-c2nc3cc(Nc4ccccc4)ccc3n2C2(C)COC2)c(F)c(O)c1O [Example 192, 3-fluoro-6-methoxy-4-[1-(3-methyloxetan-3-yl)-5-(phenylamino)-1H-1,3-benzodiazol-2-yl]benzene-1,2-diol] | ≤ 100 |
| COc1cc(-c2nc3cc(N4CCC4)ccc3n2C2CCC2)c(C)c(O)c1O [Example 193] | 100 to 1000 |
| COc1cc(-c2nc3ccc(-c4cn[nH]c4)cc3n2C2(C)COC2)c(F)c(O)c1O [Example 194] | ≤ 100 |
| COc1cc(-c2nc3cc(N(C)C(C)=O)ccc3n2C2(C)COC2)c(F)c(O)c1O [Example 195] | 100 to 1000 |
| COC(=O)c1cc(-c2nc3cc(N4CCC4)ccc3[nH]2)cc(OC)c1O [Example 196, methyl 5˜(5-(azetidin-1-yl)-1H-benzo[d]imidazol-2-yl)-2-hydroxy-3-methoxybenzoate] | > 100000 |
| COc1cc(-c2nc3cc(N4CCN(C)C4=O)ccc3n2C2(C)COC2)c(F)c(O)c1O [Example 197, 1-(2-(2-fluoro-3,4-dihydroxy-5-methoxyphenyl)-1-(3-methyloxetan-3-yl)-1H-benzo[d]imidazol-5-yl)-3-methylimidazolidin-2-one] | 100 to 1000 |
| COc1cc(-c2nc3cc(N4CCNC4=O)ccc3n2C2(C)COC2)c(F)c(O)c1O [Example 198, 1-(2-(2-fluoro-3,4-dihydroxy-5-methoxyphenyl)-1-(3-methyloxetan-3-yl)-1H-benzo[d]imidazol-5-yl)imidazolidin-2-one] | ≤ 100 |
| COc1c(C)c(-c2nc3cc(N4CCC4)ccc3n2C2COC2)c(F)c(O)c1O [Example 199, 4-[5-(azetidin-1-yl)-1-(oxetan-3-yl)-1H-1,3-benzodiazol-2-yl]-3-fluoro-6-methoxy-5-methylbenzene-1,2-diol] | 1000 to 10000 |
| COc1c(C)c(-c2nc3cc(N4CCC4)ccc3n2C2CCC2)c(F)c(O)c1O [Example 200, 4-[5-(azetidin-1-yl)-1-cyclobutyl-1H-1,3-benzodiazol-2-yl]-3-fluoro-6-methoxy-5-methylbenzene-1,2-diol] | 1000 to 10000 |
| COc1c(C)c(-c2nc3ccccc3n2C2(C)COC2)cc(O)c1O [Example 201, 3-methoxy-4-methyl-5-[1-(3-methyloxetan-3-yl)-1H-1,3-benzodiazol-2-yl]benzene-1,2-diol] | 10000 to 100000 |
| COc1cc(-c2nc3c(Cl)c(Cl)ccc3[nH]2)c(F)c(O)c1O [Example 202, 4-(6,7-dichloro-1H/benzo[d]imidazol-2-yl)-3-fluoro-6-methoxybenzene-1,2-diol] | > 100000 |
| COc1cc(-c2nc3cc(NC(=O)c4ccccn4)ccc3n2C2(C)COC2)c(F)c(O)c1O [Example 203, N-[2-(2-fluoro-3,4-dihydroxy-5-methoxyphenyl)-1-(3-methyloxetan-3-yl)-1H-1,3-benzodiazol-5-yl]pyridine-2-carboxamide] | ≤ 100 |
| COc1cc(-c2nc3cc(NC(=O)C4CC4)ccc3n2C2(C)COC2)c(F)c(O)c1O [Example 204, N-[2-(2-fluoro-3,4-dihydroxy-5-methoxyphenyl)-1-(3-methyloxetan-3-yl)-1H-1,3-benzodiazol-5-yl]cyclopropanecarboxamide] | ≤ 100 |
| COc1cc(-c2nc3ccc(C(=O)NC4CC(F)(F)C4)cc3n2C2(C)COC2)c(F)c(O)c1O [Example 205, N-(3,3-difluorocyclobutyl)-2-(2-fluoro-3,4-dihydroxy-5-methoxyphenyl)-1-(3-methyloxetan-3-yl)-1H-benzo[d]imidazole-6-carboxamide] | ≤ 100 |
| COc1cc(-c2nc3cc(NC(=O)c4cnoc4)ccc3n2C2(C)COC2)c(F)c(O)c1O [Example 206, N-(2-(2-fluoro-3,4-dihydroxy-5-methoxyphenyl)-1-(3-methyloxetan-3-yl)-1H-benzo[d]imidazol-5-yl)isoxazole-4-carboxamide] | 100 to 1000 |
| COc1cc(-c2nc3ccc(NC(C)=O)cc3n2C2(C)COC2)c(F)c(O)c1O [Example 207, N-[2-(2-fluoro-3,4-dihydroxy-5-methoxyphenyl)-1-(3-methyloxetan-3-yl)-1H-1,3-benzodiazol-6-yl]acetamide] | ≤ 100 |
| COc1cc(-c2nc3c(NC(C)=O)cccc3n2C2(C)COC2)c(F)c(O)c1O [Example 209, N-[2-(2-fluoro-3,4-dihydroxy-5-methoxyphenyl)-1-(3-methyloxetan-3-yl)-1H-1,3-benzodiazol-4-yl]acetamide] | 100 to 1000 |
| COc1cc(-c2nc3cccc(NC(C)=O)c3n2C2(C)COC2)c(F)c(O)c1O [Example 210, N-[2-(2-fluoro-3,4-dihydroxy-5-methoxyphenyl)-1-(3-methyloxetan-3-yl)-1H-1,3-benzodiazol-7-yl]acetamide] | 100 to 1000 |
| COC(=O)c1ccc2nc(-c3cc(OC)c(O)c(O)c3F)n(C3(C)COC3)c2c1 [Example 211, methyl 2-(2-fluoro-3,4-dihydroxy-5-methoxyphenyl)-1-(3-methyloxetan-3-yl)-1H-benzo[d]imidazole-6-carboxylate] | ≤ 100 |
| CNC(=O)c1ccc2nc(-c3cc(OC)c(O)c(O)c3F)n(C3(C)COC3)c2c1 [Example 212, 2-(2-fluoro-3,4-dihydroxy-5-methoxyphenyl)-N-methyl-1-(3-methyloxetan-3-yl)-1H-benzo[d]imidazole-6-carboxamide] | ≤ 100 |

Source: patent publication US20230234943A1, “TREX1 INHIBITORS AND USES THEREOF” (Tempest Therapeutics, Inc., priority 2020, published 2023)
